Literature values in article PMC11089247 (Frontiers in Pharmacology, 2024).
Structures can show the parent of a compound that is named as a salt.

Experiments:
[1] = system: CYP2C9; set-up: method as in Ji et al., 2015; conditions: substrate fluoxetine, ref Ji et al., 2015
[2] = system: CYP2C19; conditions: substrate fluoxetine, ref Fang et al., 2017

**Q.** For `CNCCC(Oc1ccc(C(F)(F)F)cc1)c1ccccc1` (centres unmarked) [fluoxetine, Fluoxetine hydrochloride], which Km [1] is on record?
**A.** 31.7 µM

**Q.** And the Km [2]?
**A.** 97.6 µM
